Reference: US20260327244A1, “PYRIDO[4,3-D]PYRIMIDINE COMPOUNDS” (Pfizer Inc., priority 2022, published 2026)
Counter-ions that a name gives are not always drawn. Like-named read-outs stand apart in the source and are kept apart here.

Experiments:
[1] = target: T1, wild-type (WT) KRAS (aa1-185) (Homo sapiens, UniProt P01116); test: KRAS Surface Plasma Resonance (SPR) binding assay, WT KRAS; conditions: SPR at 10 °C, geometric mean when tested more than once
T1 construct: wild-type (WT) KRAS (aa1-185)
From the text: (§1) No additional regeneration was used.
(§2) Compound dissociation was monitored for at least 3600 seconds. […] No additional regeneration was used.

WT HRAS (aa2-184) = target: T2, WT HRAS (aa2-184) (Homo sapiens, UniProt P01112); test: SPR binding assay, WT HRAS; conditions: SPR at 10 °C, geometric mean when tested more than once
T2 construct: WT HRAS (aa2-184)
From the text: as §1, §2

WT NRAS (aa2-185) = target: T3, WT NRAS (aa2-185) (Homo sapiens, UniProt P01111); test: SPR binding assay, WT NRAS; conditions: SPR at 10 °C, geometric mean when tested more than once
T3 construct: WT NRAS (aa2-185)
From the text: as §1, §2

G12D KRAS (aa1-185) [2] = target: T4, G12D KRAS (aa1-185) (Homo sapiens, UniProt P01116, G12D); test: biochemical;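 also: surface plasmon resonance at 10 °C, KRAS captured on a streptavidin chip in GDP-containing buffer, compound dilution series injected, blank streptavidin surface as reference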
Experimental: (§3) SPR assay was used to measure the kinetic binding constant (KD) of Examples of the present invention.
(§4) The binding affinity and kinetics of Examples of the present invention were measured by Surface Plasmon Resonance (SPR) using Biacore 8K or 8K+ (Cytiva, Marlborough, MA) instruments. Recombinant, C-terminal site-specific biotinylated, wild-type (WT) KRAS (aa1-185), G12D KRAS (aa1-185), G12C KRAS (aa2-184), G12V KRAS (aa2-184), WT HRAS (aa2-184) and WT NRAS (aa2-185) proteins purified in presence of 1 μM GDP were used in these experiments. Binding measurements were performed parallelly in sets of either WT/G12D/G12C/G12V KRAS or WT K/H/N RAS proteins.
(§5) Biacore instrument was desorbed and docked with a Series S Sensor Chip SA. The proteins were diluted to 50 μg/mL with the assay buffer (50 mM HEPES, 150 mM NaCl, 10 μM GDP, 5 mM MgCl2, 0.5 mM TCEP, 5% glycerol, 0.02% Tween-20, 2% DMSO, pH 7.2) and immobilized at a flow rate of 3 μL/min at 10° C. with a contact time of 15 min. to capture ~3000-4000 RUs of proteins on the surface. The functionalized surface was then equilibrated with assay buffer for approximately 1 hour. Un-functionalized SA surfaces with no immobilized protein served as reference for binding kinetic analysis. Compound binding kinetics were measured in either multi-cycle or single-cycle kinetic format.
(§6) A 2-fold, 10-point serial dilution of test compounds was set-up in a 96-well microplate (Greiner; Cat #650101) with a top concentration of either 10 μM or 100 μM. Binding kinetics was measured at 10° C. by injecting serial dilution of compounds onto both reference and RAS immobilized channels at a flow rate of 100 μL/min and association time of 90 seconds. Compound dissociation was monitored for at least 400 seconds during each cycle. No additional regeneration was used. DMSO calibration curve was obtained before and after compound analysis by injecting 0-4% of DMSO in assay buffer. A suitable compound with known affinity and kinetics was tested once in every experiment as a positive control to assess activity of the captured protein on the surface.
(§7) A 3-fold, 6-point serial dilution of compounds was set-up in a deep 96-well microplate (Greiner Bio; Cat #780201) with the highest concentration of 1 μM (concentration range: 0.004-1 μM). Binding kinetics was measured at 10° C. by injecting serial dilutions of compounds in increasing order onto reference as well as RAS immobilized channels at a flow rate of 100 μL/min and association time of 120 seconds. Compound dissociation was monitored for at least 3600 seconds. Two buffer blanks were also run in a single-cycle kinetics format before the compound run for double referencing. No additional regeneration was used. DMSO calibration curve was obtained before and after compound analysis by injecting 0-4% of DMSO in the assay buffer. A suitable compound with known affinity and kinetics was tested once in every experiment as a positive control to assess activity of the captured protein on the surface.
(§8) Both MCK and SCK data were processed and analyzed using Biacore Insight evaluation software (Cytiva, Marlborough, MA)). […] The adequateness of the fit was judged by c^2 values and the randomness of residue distribution.
(§9) A geometric mean of binding constant KD was provided when an Example was tested more than once (n is testing replicate number).

G12C KRAS (aa2-184) [3] = target: T5, G12C KRAS (aa2-184) (Homo sapiens, UniProt P01116, G12C); test: biochemical
Experimental: as §3, §4, §5, §6, §7, §8, §9

G12V KRAS (aa2-184) [4] = target: T6, G12V KRAS (aa2-184) (Homo sapiens, UniProt P01116, G12V); test: biochemical
Experimental: as §3, §4, §5, §6, §7, §8, §9

[5] = Mouse PK study, unbound plasma exposure of Example 33 after oral dosing of female NSG mice; type: in vivo; conditions: for Cav, ss, u / Cmax, u: unbound Example 33 in plasma, single oral dose 100 mg (active)/kg
Experimental: FIG. 1 provides mouse PK study results showing unbound plasma concentrations of Example 33 in female NSG mouse plasma after oral dosing of female NSG Mice at 100 mg/kg (n=3, mean+/−SD). The solution of Example 33 was prepared using a Pluronic-based formulation [2.5% (w/v) Pluronic F-68 (Poloxamer 188)], and the suspension arms of both Example 33 and Example 34 were prepared using a 0.5% (w/v) methylcellulose formulation.
The solution formulation of Example 33 was an aqueous solution with 2.5% (w/v) Pluronic F-68 (Poloxamer 188). The amorphous suspension formulations of Example 33 and Example 34 were made using in 0.5% (w/v) methylcellulose in water.

G12D KRAS (aa1-185) [6] = target: T4, G12D KRAS (aa1-185)
Experimental: as §3, §4, §5, §6, §7, §8, §9

G12C KRAS (aa2-184) [7] = target: T5, G12C KRAS (aa2-184)
Experimental: as §3, §4, §5, §6, §7, §8, §9

G12V KRAS (aa2-184) [8] = target: T6, G12V KRAS (aa2-184)
Experimental: as §3, §4, §5, §6, §7, §8, §9

[9] = suspension, relative to Example 33 suspension, 100 mg (active)/kg oral
[10] = suspension (0.5% methylcellulose)

T5 sequence (P01116 2-184 isoform P01116-2 G12C): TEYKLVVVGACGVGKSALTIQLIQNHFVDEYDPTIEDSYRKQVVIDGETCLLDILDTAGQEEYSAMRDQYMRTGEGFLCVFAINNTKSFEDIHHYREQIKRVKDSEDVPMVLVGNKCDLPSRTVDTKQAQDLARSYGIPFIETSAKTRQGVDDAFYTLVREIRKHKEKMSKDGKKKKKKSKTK
T2 sequence (P01112 2-184): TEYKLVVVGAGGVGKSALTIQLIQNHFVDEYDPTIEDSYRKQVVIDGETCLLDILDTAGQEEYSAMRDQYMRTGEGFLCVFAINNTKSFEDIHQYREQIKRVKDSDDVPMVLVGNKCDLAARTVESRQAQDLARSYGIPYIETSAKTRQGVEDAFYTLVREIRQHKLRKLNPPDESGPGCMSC
T1 sequence (P01116 1-185 isoform P01116-2): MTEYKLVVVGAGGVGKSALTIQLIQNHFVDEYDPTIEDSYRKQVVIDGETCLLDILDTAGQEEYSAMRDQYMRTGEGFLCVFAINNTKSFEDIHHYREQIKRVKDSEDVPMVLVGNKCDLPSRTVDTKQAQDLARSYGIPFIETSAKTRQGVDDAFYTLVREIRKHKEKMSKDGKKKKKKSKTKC
T3 sequence (P01111 2-185): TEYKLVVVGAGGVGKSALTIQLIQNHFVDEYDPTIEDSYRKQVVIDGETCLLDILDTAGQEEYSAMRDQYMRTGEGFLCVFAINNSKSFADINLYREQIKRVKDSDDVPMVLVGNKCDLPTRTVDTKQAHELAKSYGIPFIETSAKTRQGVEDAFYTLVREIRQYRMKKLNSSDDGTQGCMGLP
T4 sequence (P01116 1-185 isoform P01116-2 G12D): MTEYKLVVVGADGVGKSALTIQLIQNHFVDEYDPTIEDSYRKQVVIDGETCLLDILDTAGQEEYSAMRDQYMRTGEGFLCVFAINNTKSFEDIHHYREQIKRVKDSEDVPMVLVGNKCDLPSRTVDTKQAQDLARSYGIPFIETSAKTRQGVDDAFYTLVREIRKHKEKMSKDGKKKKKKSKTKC
T6 sequence (P01116 2-184 isoform P01116-2 G12V): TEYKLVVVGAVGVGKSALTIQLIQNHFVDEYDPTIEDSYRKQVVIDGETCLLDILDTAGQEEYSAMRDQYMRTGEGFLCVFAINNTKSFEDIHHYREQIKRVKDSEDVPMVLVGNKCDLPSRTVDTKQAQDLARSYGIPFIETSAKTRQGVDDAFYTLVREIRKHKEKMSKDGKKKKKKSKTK

SMILES | Kd [1] | Kd (WT HRAS (aa2-184)) | Kd (WT NRAS (aa2-185)) | Kd (G12D KRAS (aa1-185) [2]) | Kd (G12C KRAS (aa2-184) [3]) | Kd (G12V KRAS (aa2-184) [4]) | further results
C#Cc1cccc2cc(O)cc(-c3ncc4c(N5CC[C@H](CC#N)C5)nc(OC[C@@]56CCCN5C[C@H](F)C6)nc4c3F)c12 [Example 3, {(3R)-1-[7-(8-ethynyl-3-hydroxynaphthalen-1-yl)-8-fluoro-2-{[(2R,7aS)-2-fluorotetrahydro-1H-pyrrolizin-7a(5H)-yl]methoxy}pyrido[4,3-d]pyrimidin-4-yl]pyrrolidin-3-yl}acetonitrile] | 4.79 nM | > 10000 nM | > 10000 nM | 12.3 nM | 11 nM | 10.8 nM | 
C#Cc1c(F)ccc2cc(O)cc(-c3ncc4c(N5C[C@@H]6C[C@H](C5)[C@H](O)C6)nc(OC[C@@]56CCCN5C[C@H](F)C6)nc4c3F)c12 [Example 10, (1R,5R,6R)-3-[7-(8-ethynyl-7-fluoro-3-hydroxynaphthalen-1-yl)-8-fluoro-2-{[(2R,7aS)-2-fluorotetrahydro-1H-pyrrolizin-7a(5H)-yl]methoxy}pyrido[4,3-d]pyrimidin-4-yl]-3-azabicyclo[3.2.1]octan-6-ol] | 0.03 nM | 71.5 nM | 346 nM | 0.297 nM | 0.681 nM | 4.86 nM | 
N#CC[C@@H]1CCCN(c2nc(OC[C@@]34CCCN3C[C@H](F)C4)nc3c(F)c(-c4cc(O)cc5ccc(F)c(F)c45)ncc23)C1 [Example 12, {(3S)-1-[7-(7,8-difluoro-3-hydroxynaphthalen-1-yl)-8-fluoro-2-{[(2R,7aS)-2-fluorotetrahydro-1H-pyrrolizin-7a(5H)-yl]methoxy}pyrido[4,3-d]pyrimidin-4-yl]piperidin-3-yl}acetonitrile] | 0.022 nM | 606 nM | 1000 nM | 0.045 nM | 1.13 nM | 0.117 nM | 
CC(=O)N1CCN(c2nc(OC[C@@]34CCCN3C[C@H](F)C4)nc3c(F)c(-c4cc(O)cc5ccc(F)c(F)c45)ncc23)C[C@@H]1CC#N [Example 13, {(2S)-1-acetyl-4-[7-(7,8-difluoro-3-hydroxynaphthalen-1-yl)-8-fluoro-2-{[(2R,7aS)-2-fluorotetrahydro-1H-pyrrolizin-7a(5H)-yl]methoxy}pyrido[4,3-d]pyrimidin-4-yl]piperazin-2-yl}acetonitrile] | 1.25 nM | 8920 nM | > 10000 nM | 59.8 nM | 7.56 nM | 10.4 nM | 
Oc1cc(-c2ncc3c(N4C[C@@H]5C[C@H](C4)[C@H](O)C5)nc(OC[C@@]45CCCN4C[C@H](F)C5)nc3c2F)c2c(F)c(F)ccc2c1 [Example 14, (1R,5R,6R)-3-[7-(7,8-difluoro-3-hydroxynaphthalen-1-yl)-8-fluoro-2-{[(2R,7aS)-2-fluorotetrahydro-1H-pyrrolizin-7a(5H)-yl]methoxy}pyrido[4,3-d]pyrimidin-4-yl]-3-azabicyclo[3.2.1]octan-6-ol] | 0.006 nM | 198 nM | 656 nM | 0.092 nM | 0.263 nM | 0.461 nM | 
Oc1cc(-c2ncc3c(N4C[C@H]5CC[C@@H](C4)O5)nc(OC[C@@]45CCCN4C[C@H](F)C5)nc3c2F)c2c(F)c(F)ccc2c1 [Example 16, 5,6-difluoro-4-(8-fluoro-2-{[(2R,7aS)-2-fluorotetrahydro-1H-pyrrolizin-7a(5H)-yl]methoxy}-4-[(1R,5S)-8-oxa-3-azabicyclo[3.2.1]octan-3-yl]pyrido[4,3-d]pyrimidin-7-yl)naphthalen-2-ol, acetic acid salt] | 5.82 nM | > 10000 nM | > 10000 nM | 23.8 nM | 8.57 nM | 5.73 nM | 
Oc1cc(-c2ncc3c(N4C[C@@H]5C[C@H](C4)[C@H](O)C5)nc(OC[C@@]45CCCN4C[C@H](F)C5)nc3c2F)c2c(Cl)cccc2c1 [Example 20, (1R,5R,6R)-3-[7-(8-chloro-3-hydroxynaphthalen-1-yl)-8-fluoro-2-{[(2R,7aS)-2-fluorotetrahydro-1H-pyrrolizin-7a(5H)-yl]methoxy}pyrido[4,3-d]pyrimidin-4-yl]-3-azabicyclo[3.2.1]octan-6-ol] | 0.075 nM | 725 nM | 1000 nM | 0.138 nM | 0.629 nM | 0.098 nM | 
C#Cc1c(F)ccc2cccc(-c3nc4c5c(nc(OC[C@@]67CCCN6C[C@H](F)C7)nc5c3F)N3C[C@@H](O)CC[C@H]3CO4)c12 [Example 30, (8aS,11S)-5-(8-ethynyl-7-fluoronaphthalen-1-yl)-4-fluoro-2-{[(2R,7aS)-2-fluorotetrahydro-1H-pyrrolizin-7a(5H)-yl]methoxy}-8,8a,9,10,11,12-hexahydro-7-oxa-1,3,6,12a-tetraazabenzo[4,5]cyclohepta[1,2,3-de]naphthalen-11-ol] | 2.58 nM |  |  | 0.25 nM | 1.1 nM | 0.24 nM | 
C#Cc1c(F)ccc2cc(OCOP(=O)(O)O)cc(-c3nc4c5c(nc(OC[C@@]67CCCN6C[C@H](F)C7)nc5c3F)N3CCCOC[C@H]3CO4)c12 [Example 34, ({5-ethynyl-6-fluoro-4-[(8aS)-4-fluoro-2-{[(2R,7aS)-2-fluorotetrahydro-1H-pyrrolizin-7a(5H)-yl]methoxy}-8a,9,12,13-tetrahydro-8H,11H-7,10-dioxa-1,3,6,13a-tetraazanaphtho[1,8-ab]heptalen-5-yl]naphthalen-2-yl}oxy)methyl dihydrogen phosphate] |  |  |  |  |  |  | Cav Fold Increase [5, 9]: 10.4; Cav, ss, u [5, 10]: 3.84 nM

Second part, led by results:

Kd [1] | Kd (WT HRAS (aa2-184)) | Kd (WT NRAS (aa2-185)) | Kd (G12D KRAS (aa1-185) [2]) | Kd (G12C KRAS (aa2-184) [3]) | Kd (G12V KRAS (aa2-184) [4]) | SMILES | further results
 | 473 nM |  |  |  |  | C#Cc1c(F)ccc2cc(O)cc(-c3nc4c5c(nc(OC[C@@]67CCCN6C[C@H](F)C7)nc5c3F)N3CCCC[C@H]3CO4)c12 [Example 23, 5-ethynyl-6-fluoro-4-[(8aS)-4-fluoro-2-{[(2R,7aS)-2-fluorotetrahydro-1H-pyrrolizin-7a(5H)-yl]methoxy}-8,8a,9,10,11,12-hexahydro-7-oxa-1,3,6,12a-tetraazabenzo[4,5]cyclohepta[1,2,3-de]naphthalen-5-yl]naphthalen-2-ol] | 
0.061 nM |  |  | 0.03 nM | 0.064 nM | 0.028 nM | C#Cc1c(F)ccc2cc(O)cc(-c3nc4c5c(nc(OC[C@@]67CCCN6C[C@H](F)C7)nc5c3F)N3CCC[C@@H](O)[C@H]3CO4)c12 [Example 28, (8aR,9R)-5-(8-ethynyl-7-fluoro-3-hydroxynaphthalen-1-yl)-4-fluoro-2-{[(2R,7aS)-2-fluorotetrahydro-1H-pyrrolizin-7a(5H)-yl]methoxy}-8,8a,9,10,11,12-hexahydro-7-oxa-1,3,6,12a-tetraazabenzo[4,5]cyclohepta[1,2,3-de]naphthalen-9-ol] | 
5.75 nM |  |  | 1.55 nM | 3.65 nM | 1.48 nM | C#Cc1c(F)ccc2cccc(-c3nc4c5c(nc(OC[C@@]67CCCN6C[C@H](F)C7)nc5c3F)N3CCCC[C@H]3CO4)c12 [Example 29, (8aS)-5-(8-ethynyl-7-fluoronaphthalen-1-yl)-4-fluoro-2-{[(2R,7aS)-2-fluorotetrahydro-1H-pyrrolizin-7a(5H)-yl]methoxy}-8,8a,9,10,11,12-hexahydro-7-oxa-1,3,6,12a-tetraazabenzo[4,5]cyclohepta[1,2,3-de]naphthalene] | 
0.009 nM |  |  | 0.004 nM | 0.004 nM | 0.004 nM | C#Cc1c(F)c(F)cc2cc(O)cc(-c3nc4c5c(nc(OC[C@@]67CCCN6C[C@H](F)C7)nc5c3F)N3CCCC[C@H]3CO4)c12 [Example 32, 5-ethynyl-6,7-difluoro-4-[(8aS)-4-fluoro-2-{[(2R,7aS)-2-fluorotetrahydro-1H-pyrrolizin-7a(5H)-yl]methoxy}-8,8a,9,10,11,12-hexahydro-7-oxa-1,3,6,12a-tetraazabenzo[4,5]cyclohepta[1,2,3-de]naphthalen-5-yl]naphthalen-2-ol] | 
0.023 nM |  |  |  |  |  | C#Cc1c(F)c(F)cc2cc(O)cc(-c3nc4c5c(nc(OC[C@@]67CCCN6C[C@H](F)C7)nc5c3F)N3CCCC[C@H]3CO4)c12 [Example 33, 5-ethynyl-6,7-difluoro-4-[(8aS)-4-fluoro-2-{[(2R,7aS)-2-fluorotetrahydro-1H-pyrrolizin-7a(5H)-yl]methoxy}-8,8a,9,10,11,12-hexahydro-7-oxa-1,3,6,12a-tetraazabenzo[4,5]cyclohepta[1,2,3-de]naphthalen-5-yl]naphthalen-2-ol] | Cav Fold Increase [5, 9]: 1; Cmax Fold increase [5, 9]: 1; Cav, ss, u ([5]; solution (2.5% Pluronic F-68)): 0.30 nM; Cmax, u ([5]; solution (2.5% Pluronic F-68)): 0.60 nM; Cav, ss, u [5, 10]: 0.37 nM; Cmax, u [5, 10]: 0.48 nM; Kd (G12D KRAS (aa1-185) [6]): 0.019 nM; Kd (G12C KRAS (aa2-184) [7]): 0.019 nM; Kd (G12V KRAS (aa2-184) [8]): 0.096 nM
